Measurements published in patent US20100069347A1, “HETEROCYCLYL-SUBSTITUTED ANTI-HYPERCHOLESTEROLEMIC COMPOUNDS” (priority 2006, published 2010).

Assays:
cholesterol absorption = test: Cholesterol Absorption Assay in Rat; type: in vivo; conditions: CD male rats, oral dosing, at the highest dose tested (0.0003 to 1 mg/kg); [3H]-cholesterol counts in liver and plasma
Method: Compounds of this invention were determined to inhibit cholesterol absorption employing the Cholesterol Absorption Assay in Rat, below. This assay involves comparing a test compound to ezetimibe with respect to their ability to inhibit cholesterol absorption in rat.
Cholesterol Absorption Assay in Rats: CD male rats (n=5/group), aged 5 weeks, were dosed orally with 0.5 ml 0.25% methyl cellulose solution with or without test compound or ezetimibe (0.0003 to 1 mg/kg). 0.5 to 16 hrs later all of the rats were dosed orally with 0.5 ml INTRALIPID® containing 5 μCi [^3H]-cholesterol per rat. Five hours later, the animals were euthanized, and liver and blood were collected. Cholesterol counts in liver and plasma were determined, and percent inhibition of cholesterol absorption was calculated.

Compound	melting point [°C]	inhibition of cholesterol absorption (cholesterol absorption) [%]
O=C1[C@H](CC[C@H](O)c2ccc(F)cc2)[C@@H](c2ccc(CCC(O)(CO)CO)cc2)N1c1ccc(CCc2nc[nH]n2)cc1 [Example 2, (3R,4S)-4-{4-[3,4-dihydroxy-3-(hydroxymethyl)butyl]phenyl}-3-[(3S)-3-(4-fluorophenyl)-3-hydroxypropyl]-1-{4-[2-(1H-1,2,4-triazol-5-yl)ethyl]phenyl}azetidin-2-one]	104	
O=C1[C@H](CC[C@H](O)c2ccc(F)cc2)[C@@H](c2ccc(O)cc2)N1c1ccc(F)cc1 [ezetimibe, Ezetimibe]		> 90
